In patent publication US4863941A, “Glycerol derivatives” (Hoffmann-La Roche Inc., priority 1985, dated 1989) one finds IC50 data, which are given here for 9 compounds.

This experiment has as its system aggregation of the blood platelets brought about by PAF. Description: inhibition of PAF-triggered platelet aggregation in platelet-rich plasma (PRP), aggregometer. The format is cell-based. The following applies: Oryctolagus cuniculus, rabbit PRP, 37° C., sub-maximum dosage of PAF (4 nM), test substance added 2 minutes before PAF. The procedure:
Platelet-rich plasma (PRP) is prepared by centrifugation of rabbit blood containing 1/10 volumes of 90 mM trisodium citrate. The aggregation of the blood platelets is measured with the aid of an aggregometer at 37° C. while stirring. 2 minutes after the addition of the test sub- stance to the PRP the platelet aggregation is triggered off by a sub-maximum dosage of PAF (4 nM). The IC50 value (μM) given in the following Table corresponds to that concentration of the test substance which reduces to a half the aggregation of the blood platelets brought about by PAF.
For `CCCCCCCCCCCCCCCCCC(=O)OCC(COC(=O)CCC[N+](C)(C)C)NC(C)=O` (racemic) [Example 1, [3-[[(RS)-2-acetamido-3-[octadecanoyloxy]propoxy]carbonyl]propyl]trimethylammonium chloride], the IC50 (usually the concentration that inhibits the measured activity by half) was found to be 5.5 µM.
Next, `CCCCCCCCCCCCCCCCCCNC(=O)OCC(COC(=O)CCC[N+](C)(C)C)NC(=O)OC` (racemic) [Example 2, [3-[[(RS)-2-(1-methoxyformamido)-3-(octadecylcarbamoyloxy)propoxy]carbonyl]propyl]trimethylammonium chloride]: 1.8 µM; `CCCCCCCCCCCCCCCCCCOCC(COC(=O)OCC[N+]1(C)CCCCC1)OC` (racemic) [Example 3, 1-[2-[[[(RS)-2-methoxy-3-(octadecyloxy)propoxy]carbonyl]oxy]ethyl]-1-methylpiperidinium chloride]: 4 µM.
Next, `CCCCCCCCCCCCCCCCCCOC(=O)NCC(COC(=O)CCC[N+](C)(C)C)OC(=O)NC` (racemic) [Example 4, [3-[[(RS)-2-Methylcarbamoyloxy-3-[1-(octadecyloxy)formamido]propoxy]carbonyl]propyl]trimethylammonium chloride]: 1.8 µM; `CCCCCCCCCCCCCCCCCCOC(=O)N(CC(COCCCC[n+]1ccsc1)OC(=O)NC)C(C)C` (racemic) [Example 5, 3-[4-[(RS)-3-[N-isopropyl-1-(octadecyloxy)formamido]-2-[(methylcarbamoyl)oxy]-propoxy]butyl]thiazolium bromide]: 0.04 µM; `CCCCCCCCCCCCCCCCCCOC(=O)N(CC(COCCCC[N+](C)(C)C)OC(=O)NC)C(C)C` (racemic) [Example 6, [4-[(RS)-3-[N-isopropyl(1-octadecyloxy)formamido]-2-[(methylcarbamoyl)oxy]propoxy]butyl]trimethylammonium bromide]: 0.5 µM.
Next, `CCCCCCCCCCCCCCCCCCNC(=O)N(CC(COCCCC[n+]1ccsc1)OC(=O)NC)C(C)C` (racemic) [Example 7, 3-[4-[(RS)-3-(1-isopropyl-3-octadecylureido)-2-[(methylcarbamoyl)oxy]propoxy]butyl]thiazolium bromide]: 0.05 µM; `CCCCCCCCCCCCCCCCCCNC(=O)N(CC(COCCCCn1cc[n+](C)c1)OC(=O)NC)C(C)C` (racemic) [Example 8, 1-[4-[(RS)-3-(1-isopropyl-3-octadecylureido)-2-[(methylcarbamoyl)oxy]propoxy]butyl]-3-methylimidazolium bromide]: 0.4 µM; `CCCCCCCCCCCCCCCCCCOC(=O)N(CC(COCCCC[n+]1ccsc1)OC(=O)OC)C(C)C` (racemic) [Example 9, 3-[4-(RS)-3-(N-isopropyl-1-octadecyloxyformamido)-2-(methoxycarbonyloxy)propoxy]butyl]thiazolium bromide]: 0.06 µM.
